Where two headings read alike, the source gives them in different places.
How the values were obtained:
[1] = biological target: T1, CYP17 (human testicular microsome) (Homo sapiens, UniProt P05093); experiment: CYP17 enzymatic assay (IC50) (Biological Example 4); format: biochemical; conditions: human testicular microsome
T1 construct: using microsomal fraction from human testis (Celsis Cat #S00110) as the enzyme source; tissue Celsis S00110; host or cells: human testis microsomal fraction
T1 sequence (P05093 1-508): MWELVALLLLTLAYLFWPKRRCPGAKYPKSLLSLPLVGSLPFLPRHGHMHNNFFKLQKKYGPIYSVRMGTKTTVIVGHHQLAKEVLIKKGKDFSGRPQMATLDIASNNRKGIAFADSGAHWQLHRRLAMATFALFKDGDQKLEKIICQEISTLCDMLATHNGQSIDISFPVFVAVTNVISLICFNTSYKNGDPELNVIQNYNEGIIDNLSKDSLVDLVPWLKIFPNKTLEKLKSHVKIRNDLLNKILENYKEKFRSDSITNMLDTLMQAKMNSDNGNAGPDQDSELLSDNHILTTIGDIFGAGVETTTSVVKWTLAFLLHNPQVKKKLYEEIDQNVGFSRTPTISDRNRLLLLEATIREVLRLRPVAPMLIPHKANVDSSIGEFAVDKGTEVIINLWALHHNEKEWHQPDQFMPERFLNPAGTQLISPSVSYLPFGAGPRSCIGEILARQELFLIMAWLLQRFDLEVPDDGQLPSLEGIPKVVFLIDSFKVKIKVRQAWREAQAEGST
Procedure: The assays were performed in 96-well plates. Typical assays were carried out in total 100 μL volume that included test compounds at designated concentrations, 1× reaction buffer, 0.5 mM NADPH, 1 μM 17α-hydroxypregnenolone, and 2.5 μL of diluted human testicular microsome (Celsis. Cat #S00110). Reaction without test compound served as positive control. Reactions were allowed to incubate at 37° C. for 90 minutes with gentle shaking. The reaction was stopped by directly applying the enzymatic reaction mixture to ELISA plate for evaluation of DHEA concentration according to manufacturer's protocol (IBL America). A standard curve (OD450 vs. DHEA concentration) was generated using purified DHEA.

[2] = Human liver microsome stability assay (Biological Example 8b); conditions: liver microsomes, pH 7.4
Procedure: The reaction was started with addition of excess NADPH (5 mg/mL, 15 μL in 0.1 M potassium phosphate buffer, 1.0 mM EDTA, pH 7.4), the total volume is 45 μL (compound final concentration was 1 μM). […] 50 μL of the supernatant was transferred from each well into a 96-well sample plate containing 50 μL of ultra-pure water (Millipore) for LC-MS/MS analysis.

[3] = biological target: T1, CYP17 (human testicular microsome); experiment: CYP17 enzymatic assay (% inhibition at 1 nM) (Biological Example 12); format: biochemical; conditions: compound at 1 nM, read-out: CYP17 enzymatic assay % inhibition at 1 nM (Biological Example No. 12)
[4] = biological target: T1, CYP17 (human testicular microsome); experiment: CYP17 enzymatic assay (% inhibition at 10 nM), version 1 (Biological Example 5); format: biochemical
[5] = read-out: CYP17 enzymatic assay IC50 (Biological Example No. 4)
[6] = DHEA by ELISA, read-out: Biological Example No. 4: CYP17 enzymatic assay IC50
[7] = 10 nM compound, DHEA by ELISA, read-out: Biological Example No. 5: CYP17 percent inhibition at 10 nM (version 1)
[8] = compound at 10 nM, read-out: CYP17 enzymatic assay % inhibition at 10 nM (Biological Example No. 5)

## CC1(C)C2=CCC3C4=CC=C(c5cccnc5)[C@@]4(C)CCC3[C@@]2(C)CCC1O (stereo partly drawn) [Compound 298, (10R,13S)-4,4,10,13-tetramethyl-17-(pyridin-3-yl)-2,3,4,7,8,9,10,11,12,13-decahydro-1H-cyclopenta[a]phenanthren-3-ol]
[1]; [5]
  IC50: > 0.025 µM
[2]
  half-life at 1 μM: 1 to 50 min
[3]
  inhibition at 0.001 µM: 10 to 50%

## COc1cncc(C2=CC=C3[C@@H]4CC=C5C[C@@H](OC(C)=O)CC[C@]5(C)[C@H]4CC[C@]23C)c1 [Compound 80, (3S,10R,13S)-17-(5-methoxypyridin-3-yl)-10,13-dimethyl-2,3,4,7,8,9,10,11,12,13-decahydro-1H-cyclopenta[a]phenanthren-3-yl acetate]
[1]; [6]
  IC50: < 0.011 µM
[4]; [7]
  inhibition at 0.01 µM: > 80%

## COC1C[C@H]2[C@@H]3CC=C(n4ccnc4)[C@@]3(C)CC[C@@H]2[C@@]2(C)CCC3CC312 (stereo partly drawn) [Compound 236, 1-((3aR,5aS)-10-methoxy-3a,5a-dimethyl-1,1a,2,3,3a,3b,4,5,5a,8,8a,8b,9,10-tetradecahydrocyclopenta[a]cyclopropa[2,3]cyclopenta[1,2-f]naphthalen-6-yl)-1H-imidazole]
[1]; [5]
  IC50: < 0.011 µM
[4]; [8]
  inhibition at 0.01 µM: > 80%
[3]
  inhibition at 0.001 µM: 10 to 50%

## CCCOc1cncc(C2=CC[C@H]3[C@@H]4CCN5C(=O)CCCC[C@]5(C)[C@H]4CC[C@]23C)c1 [Compound 42, (11aR,13aS)-11a,13a-dimethyl-1-(5-propoxypyridin-3-yl)-3b,4,5,8,9,10,11,11a,11b,12,13,13a-dodecahydro-3H-azepino[2,1-a]cyclopenta[f]isoquinolin-7(3aH)-one]
[1]; [6]
  IC50: < 0.011 µM
[4]; [7]
  inhibition at 0.01 µM: 50 to 80%

## CC(=O)O[C@H]1CC[C@@]2(C)[C@@H](CC[C@H]3C4=CC=C(n5ccnc5)[C@@]4(C)CC[C@@H]32)C1 [Compound 169, (5S,8R,9S,10S,13S)-17-(1H-imidazol-1-yl)-10,13-dimethyl-2,3,4,5,6,7,8,9,10,11,12,13-dodecahydro-1H-cyclopenta[a]phenanthren-3-yl acetate]
[1]; [6]
  IC50: < 0.011 µM
[4]; [7]
  inhibition at 0.01 µM: > 80%

## C=Cc1cncc(C2=CC[C@H]3[C@@H]4CCN5C(=O)CCCC[C@]5(C)[C@H]4CC[C@]23C)c1 [Compound 43, (11aR,13aS)-11a,13a-dimethyl-1-(5-vinylpyridin-3-yl)-3b,4,5,8,9,10,11,11a,11b,12,13,13a-dodecahydro-3H-azepino[2,1-a]cyclopenta[f]isoquinolin-7(3aH)-one]
[1]; [6]
  IC50: < 0.011 µM
[4]; [7]
  inhibition at 0.01 µM: 50 to 80%

## C[C@]12CC[C@H](O)C[C@@H]1CC[C@@H]1[C@@H]2CC[C@]2(C)C(n3ccnn3)=CC[C@@H]12 [Compound 451, (3S,5S,8R,9S,10S,13S,14S)-10,13-dimethyl-17-(1H-1,2,3-triazol-1-yl)-2,3,4,5,6,7,8,9,10,11,12,13,14,15-tetradecahydro-1H-cyclopenta[a]phenanthren-3-ol]
[1]; [5]
  IC50: < 0.011 µM
[4]; [8]
  inhibition at 0.01 µM: > 80%
[3]
  inhibition at 0.001 µM: > 50%

## COc1cncc(C2=CC[C@H]3[C@@H]4CCC5=CC(=O)NCC[C@]5(C)[C@H]4CC[C@]23C)c1 [Compound 53, (5aR,7aS)-8-(5-methoxypyridin-3-yl)-5a,7a-dimethyl-4,5,5a,5b,6,7,7a,8,9,10,10a,10b,11,12-tetradecahydrocyclopenta[5,6]naphtho[2,1-c]azepin-3(2H)-one]
[1]; [6]
  IC50: < 0.011 µM
[4]; [7]
  inhibition at 0.01 µM: 50 to 80%

## COC1CC[C@@]2(C)[C@@H](CC[C@@H]3[C@@H]2CC[C@]2(C)C(c4cncc(C)c4)=CC[C@@H]32)C1 (stereo partly drawn) [Compound 450, 3-((5S,8R,9S,10S,13S,14S)-3-methoxy-10,13-dimethyl-2,3,4,5,6,7,8,9,10,11,12,13,14,15-tetradecahydro-1H-cyclopenta[a]phenanthren-17-yl)-5-methylpyridine]
[4]; [8]
  inhibition at 0.01 µM: 1 to 50%

## C[C@]12CCCCC[C@@H]1CC[C@@H]1[C@@H]2CC[C@]2(C)C(c3cnccc3Cl)=CC[C@@H]12 [Compound 96, 4-chloro-3-((3aS,3bR,5aR,10aS,10bS,12aS)-10a,12a-dimethyl-3,3a,3b,4,5,5a,6,7,8,9,10,10a,10b,11,12,12a-hexadecahydrocyclohepta[a]cyclopenta[f]naphthalen-1-yl)pyridine]
[4]; [7]
  inhibition at 0.01 µM: 1 to 50%

## COC1CC[C@@]2(C)[C@@H](CC[C@@H]3[C@@H]2CC[C@]2(C)C(n4ccnn4)=CC[C@@H]32)C1 (stereo partly drawn) [Compound 452, 1-((5S,8R,9S,10S,13S,14S)-3-methoxy-10,13-dimethyl-2,3,4,5,6,7,8,9,10,11,12,13,14,15-tetradecahydro-1H-cyclopenta[a]phenanthren-17-yl)-1H-1,2,3-triazole]
[4]; [8]
  inhibition at 0.01 µM: 1 to 50%

## Cc1cncc(C2=CCC3C4CCC5=CN(C)CCC[C@]5(C)C4CC[C@]23C)c1 (stereo partly drawn) [Compound 446, (5aR,7aS)-2,5a,7a-trimethyl-8-(5-methylpyridin-3-yl)-2,3,4,5,5a,5b,6,7,7a,10,10a,10b,11,12-tetradecahydrocyclopenta[5,6]naphtho[2,1-c]azepine]
[4]; [7]
  inhibition at 0.01 µM: 1 to 50%

## CCc1cncc(C2=CC[C@H]3[C@@H]4CCC5=CCN(C)CC[C@]5(C)[C@H]4CC[C@]23C)c1 [Compound 150]
[4]; [7]
  inhibition at 0.01 µM: 1 to 50%

## Cc1ccncc1C1=CC[C@H]2[C@@H]3CC[C@H]4CCCCC[C@]4(C)[C@H]3CC[C@]12C [Compound 95, 3-((3aS,3bR,5aR,10aS,10bS,12aS)-10a,12a-dimethyl-3,3a,3b,4,5,5a,6,7,8,9,10,10a,10b,11,12,12a-hexadecahydrocyclohepta[a]cyclopenta[f]naphthalen-1-yl)-4-methylpyridine]
[4]; [7]
  inhibition at 0.01 µM: 1 to 50%

## C[C@]12CC[C@H]3[C@@H](CCC4CNC(=O)CC[C@@]43C)C1=CC=C2n1ccnn1 (stereo partly drawn) [Compound 179, (5aR,5bS,7aS,10bR)-5a,7a-dimethyl-8-(1H-1,2,3-triazol-1-yl)-1,2,5,5a,5b,6,7,7a,10b,11,12,12a-dodecahydrocyclopenta[5,6]naphtho[2,1-c]azepin-3(4H)-one]
[4]; [7]
  inhibition at 0.01 µM: 1 to 50%

## Cc1cncc(C2=CC[C@H]3[C@@H]4CC[C@H]5CCCCC[C@]5(C)[C@H]4CC[C@]23C)c1 [Compound 91, 3-((3aS,3bR,5aR,10aS,10bS,12aS)-10a,12a-dimethyl-3,3a,3b,4,5,5a,6,7,8,9,10,10a,10b,11,12,12a-hexadecahydrocyclohepta[a]cyclopenta[f]naphthalen-1-yl)-5-methylpyridine]
[4]; [7]
  inhibition at 0.01 µM: 1 to 50%

## C[C@]12CC[C@H](O)CC1=CC[C@@H]1[C@@H]2CC[C@]2(C)C(c3cnccc3F)=CC[C@@H]12 [Cmpd 285]
[1]; read-out: Biological Example No. 4: CYP17 enzymatic assay IC50
  IC50: < 0.011 µM
[2]
  half-life at 1 μM: 1 to 50 min

## Cc1cncc(C2=CC[C@H]3[C@@H]4CC=C5CCCC[C@]5(C)[C@H]4CC[C@]23C)c1 [Compound 65, 3-((10R,13S)-10,13-dimethyl-2,3,4,7,8,9,10,11,12,13,14,15-dodecahydro-1H-cyclopenta[a]phenanthren-17-yl)-5-methylpyridme]
[4]; [7]
  inhibition at 0.01 µM: 50 to 80%

## Cc1cncc(C2=CC[C@H]3[C@@H]4CC[C@H]5CCOCC[C@]5(C)[C@H]4CC[C@]23C)c1 [Compound 126, 3-((5aS,5bS,7aS,10aS,10bR,12aS)-5a,7a-dimethyl-2,4,5,5a,5b,6,7,7a,10,10a,10b,11,12,12a-tetradecahydro-1H-cyclopenta[5,6]naphtho[1,2-d]oxepin-8-yl)-5-methylpyridine]
[1]; [6]
  IC50: < 0.011 µM
[4]; [7]
  inhibition at 0.01 µM: 50 to 80%

## C[C@]12CC[C@H]3[C@@H](CC[C@H]4CNC(=O)CC[C@@]43C)C1=CC=C2c1cccnc1 [Compound 166, (5aR,5bS,7aS,10bR,12aR)-5a,7a-dimethyl-8-(pyridin-3-yl)-1,2,5,5a,5b,6,7,7a,10b,11,12,12a-dodecahydrocyclopenta[5,6]naphtho[2,1-c]azepin-3(4H)-one]
[4]; [7]
  inhibition at 0.01 µM: 50 to 80%

## CN1CC[C@@]2(C)C(=CC1=O)CC[C@@H]1[C@@H]2CC[C@]2(C)C(n3cnc4ccccc43)=CC[C@@H]12 [Compound 155]
[4]; [7]
  inhibition at 0.01 µM: 1 to 50%

## C[C@]12CC[C@H]3[C@@H](CCC4CC(=O)NCC[C@@]43C)C1=CC=C2n1ccnn1 (stereo partly drawn) [Compound 178, (5aS,5bS,7aS,10bR)-5a,7a-dimethyl-8-(1H-1,2,3-triazol-1-yl)-3,4,5,5a,5b,6,7,7a,10b,11,12,12a-dodecahydrocyclopenta[5,6]naphtho[1,2-d]azepin-2(1H)-one]
[4]; [7]
  inhibition at 0.01 µM: 1 to 50%

— patent US20130252930A1 (BIOMARIN PHARMACEUTICAL INC., priority 2010, published 2013)
